In patent US12275731B2, “Azaindole inhibitors of wild-type and mutant forms of LRRK2” (DANA-FARBER CANCER INSTITUTE, INC., priority 2018, dated 2025) one finds remaining binding data, which are given here for three molecules.

What all share (test): KinomeScan profiling
What all share (format): binding

Assay [1] has as its target TRKA (Homo sapiens, UniProt P04629). To be noted: read-out: % control. A digest of the protocol:
(§1)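 Luminescence (RLU) was converted to percent of control, with DMSO set as 100% and a reference compound as 0%. Test compounds were run at 1 μM against 468 kinases. Kinases showing below 35% of control were scored as bound.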

In assay [2] the target is T1, AMPK-alpha2 (Homo sapiens, UniProt P54646).
T1 construct: purchased KinomeScan®
To be noted: AMPK-alpha2, 1 μM; read-out: % control. A digest of the protocol:
as §1

Assay [3] deals with T2, DCAMKL2 (Homo sapiens, UniProt Q8N568).
T2 sequence (Q8N568 1-766): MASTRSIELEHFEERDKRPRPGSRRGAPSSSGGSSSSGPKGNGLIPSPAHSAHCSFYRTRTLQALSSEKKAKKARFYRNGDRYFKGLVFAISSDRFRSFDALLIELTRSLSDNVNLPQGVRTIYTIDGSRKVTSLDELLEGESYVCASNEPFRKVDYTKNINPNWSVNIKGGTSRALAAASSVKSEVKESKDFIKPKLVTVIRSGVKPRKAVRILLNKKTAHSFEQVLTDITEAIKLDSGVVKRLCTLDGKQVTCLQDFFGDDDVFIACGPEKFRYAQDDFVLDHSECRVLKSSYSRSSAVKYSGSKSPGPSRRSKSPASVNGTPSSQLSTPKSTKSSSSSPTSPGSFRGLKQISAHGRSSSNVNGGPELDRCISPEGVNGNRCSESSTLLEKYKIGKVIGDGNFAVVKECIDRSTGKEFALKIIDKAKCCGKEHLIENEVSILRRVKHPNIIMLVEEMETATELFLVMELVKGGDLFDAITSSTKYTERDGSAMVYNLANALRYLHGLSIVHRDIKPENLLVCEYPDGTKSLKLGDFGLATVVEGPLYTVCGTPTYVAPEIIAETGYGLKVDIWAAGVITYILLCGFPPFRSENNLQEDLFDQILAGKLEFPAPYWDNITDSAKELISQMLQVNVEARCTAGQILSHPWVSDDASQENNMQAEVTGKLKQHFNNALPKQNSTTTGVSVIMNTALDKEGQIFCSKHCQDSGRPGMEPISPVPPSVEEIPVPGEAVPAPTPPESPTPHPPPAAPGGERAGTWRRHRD
To be noted: DCAMKL2, 1 μM; read-out: % control. A digest of the protocol:
as §1

Assay [4] deals with TIE1 (Homo sapiens, UniProt P35590). To be noted: TIE1, 1 μM; read-out: % control. The method, boiled down:
as §1

Assay [5] addresses PKN2 (Homo sapiens, UniProt Q16513). As to conditions: PKN2, 1 μM; read-out: % control. A digest of the protocol: as §1
Assay [6] addresses T3, NEK10 (Homo sapiens, UniProt Q6ZWH5).
T3 sequence (Q6ZWH5 1-1172): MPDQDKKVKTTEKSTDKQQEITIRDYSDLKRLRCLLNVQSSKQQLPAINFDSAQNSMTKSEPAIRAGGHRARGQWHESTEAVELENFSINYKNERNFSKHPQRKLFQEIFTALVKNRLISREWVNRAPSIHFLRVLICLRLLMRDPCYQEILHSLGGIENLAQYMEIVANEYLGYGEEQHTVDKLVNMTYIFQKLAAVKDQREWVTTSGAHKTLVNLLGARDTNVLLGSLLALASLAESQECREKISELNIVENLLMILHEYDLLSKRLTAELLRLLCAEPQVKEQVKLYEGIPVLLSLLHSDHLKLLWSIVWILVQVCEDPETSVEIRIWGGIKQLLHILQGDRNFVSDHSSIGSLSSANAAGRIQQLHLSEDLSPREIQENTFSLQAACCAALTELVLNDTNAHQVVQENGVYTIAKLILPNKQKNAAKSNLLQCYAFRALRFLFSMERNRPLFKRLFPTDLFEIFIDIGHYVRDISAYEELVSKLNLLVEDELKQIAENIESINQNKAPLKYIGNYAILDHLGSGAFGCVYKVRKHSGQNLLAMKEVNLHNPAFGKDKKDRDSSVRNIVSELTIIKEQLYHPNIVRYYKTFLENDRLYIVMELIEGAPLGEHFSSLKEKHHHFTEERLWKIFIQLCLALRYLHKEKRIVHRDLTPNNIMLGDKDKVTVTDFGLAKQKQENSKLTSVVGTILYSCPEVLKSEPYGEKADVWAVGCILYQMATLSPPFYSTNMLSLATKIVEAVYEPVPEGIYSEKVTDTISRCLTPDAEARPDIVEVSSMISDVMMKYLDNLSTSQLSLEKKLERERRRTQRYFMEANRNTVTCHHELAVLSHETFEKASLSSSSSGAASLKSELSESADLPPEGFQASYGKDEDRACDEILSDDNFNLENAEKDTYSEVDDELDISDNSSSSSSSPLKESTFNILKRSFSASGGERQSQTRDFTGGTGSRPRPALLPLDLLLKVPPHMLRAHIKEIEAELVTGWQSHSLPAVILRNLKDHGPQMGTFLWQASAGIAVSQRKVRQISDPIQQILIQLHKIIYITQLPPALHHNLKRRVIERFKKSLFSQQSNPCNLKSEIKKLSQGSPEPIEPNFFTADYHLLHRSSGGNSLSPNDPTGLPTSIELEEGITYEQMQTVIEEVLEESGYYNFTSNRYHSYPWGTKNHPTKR
To be noted: NEK10, 1 μM; read-out: % control. A digest of the protocol: as §1

Assay [7] concerns the target T4, DRAK1 (Homo sapiens, UniProt Q9UEE5).
T4 sequence (Q9UEE5 1-414): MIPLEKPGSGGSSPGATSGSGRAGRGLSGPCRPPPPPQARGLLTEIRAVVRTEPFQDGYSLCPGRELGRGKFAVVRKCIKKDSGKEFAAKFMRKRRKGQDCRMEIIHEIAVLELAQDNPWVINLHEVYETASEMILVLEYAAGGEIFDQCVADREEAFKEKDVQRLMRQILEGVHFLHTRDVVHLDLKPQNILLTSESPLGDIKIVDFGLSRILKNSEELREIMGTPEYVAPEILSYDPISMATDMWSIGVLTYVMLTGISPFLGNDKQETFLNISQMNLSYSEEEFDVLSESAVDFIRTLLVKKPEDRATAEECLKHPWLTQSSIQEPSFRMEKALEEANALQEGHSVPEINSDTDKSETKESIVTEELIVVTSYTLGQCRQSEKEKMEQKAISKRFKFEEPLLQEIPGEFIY
As to conditions: DRAK1, 1 μM; read-out: % control. A digest of the protocol:
as §1

Chain of TRKA (P04629 33-796): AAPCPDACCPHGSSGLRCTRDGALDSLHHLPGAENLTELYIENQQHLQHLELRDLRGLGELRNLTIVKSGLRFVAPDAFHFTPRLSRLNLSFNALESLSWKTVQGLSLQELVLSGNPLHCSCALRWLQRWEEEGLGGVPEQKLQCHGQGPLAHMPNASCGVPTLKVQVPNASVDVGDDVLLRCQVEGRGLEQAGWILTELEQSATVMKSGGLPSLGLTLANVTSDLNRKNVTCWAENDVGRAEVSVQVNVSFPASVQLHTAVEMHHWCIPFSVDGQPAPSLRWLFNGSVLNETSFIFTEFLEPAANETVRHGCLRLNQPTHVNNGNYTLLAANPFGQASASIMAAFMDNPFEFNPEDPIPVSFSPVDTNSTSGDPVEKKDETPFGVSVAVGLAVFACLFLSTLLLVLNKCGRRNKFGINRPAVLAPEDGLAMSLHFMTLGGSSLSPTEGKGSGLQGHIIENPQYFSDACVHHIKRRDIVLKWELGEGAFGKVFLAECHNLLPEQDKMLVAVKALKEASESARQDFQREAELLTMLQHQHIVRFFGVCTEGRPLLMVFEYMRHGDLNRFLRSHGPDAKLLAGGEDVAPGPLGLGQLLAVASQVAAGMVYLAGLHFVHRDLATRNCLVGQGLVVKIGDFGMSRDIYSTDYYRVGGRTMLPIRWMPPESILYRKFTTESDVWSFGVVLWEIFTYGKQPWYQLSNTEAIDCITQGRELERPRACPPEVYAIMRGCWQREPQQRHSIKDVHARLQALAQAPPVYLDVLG
Chain of PKN2 (Q16513 whole entry): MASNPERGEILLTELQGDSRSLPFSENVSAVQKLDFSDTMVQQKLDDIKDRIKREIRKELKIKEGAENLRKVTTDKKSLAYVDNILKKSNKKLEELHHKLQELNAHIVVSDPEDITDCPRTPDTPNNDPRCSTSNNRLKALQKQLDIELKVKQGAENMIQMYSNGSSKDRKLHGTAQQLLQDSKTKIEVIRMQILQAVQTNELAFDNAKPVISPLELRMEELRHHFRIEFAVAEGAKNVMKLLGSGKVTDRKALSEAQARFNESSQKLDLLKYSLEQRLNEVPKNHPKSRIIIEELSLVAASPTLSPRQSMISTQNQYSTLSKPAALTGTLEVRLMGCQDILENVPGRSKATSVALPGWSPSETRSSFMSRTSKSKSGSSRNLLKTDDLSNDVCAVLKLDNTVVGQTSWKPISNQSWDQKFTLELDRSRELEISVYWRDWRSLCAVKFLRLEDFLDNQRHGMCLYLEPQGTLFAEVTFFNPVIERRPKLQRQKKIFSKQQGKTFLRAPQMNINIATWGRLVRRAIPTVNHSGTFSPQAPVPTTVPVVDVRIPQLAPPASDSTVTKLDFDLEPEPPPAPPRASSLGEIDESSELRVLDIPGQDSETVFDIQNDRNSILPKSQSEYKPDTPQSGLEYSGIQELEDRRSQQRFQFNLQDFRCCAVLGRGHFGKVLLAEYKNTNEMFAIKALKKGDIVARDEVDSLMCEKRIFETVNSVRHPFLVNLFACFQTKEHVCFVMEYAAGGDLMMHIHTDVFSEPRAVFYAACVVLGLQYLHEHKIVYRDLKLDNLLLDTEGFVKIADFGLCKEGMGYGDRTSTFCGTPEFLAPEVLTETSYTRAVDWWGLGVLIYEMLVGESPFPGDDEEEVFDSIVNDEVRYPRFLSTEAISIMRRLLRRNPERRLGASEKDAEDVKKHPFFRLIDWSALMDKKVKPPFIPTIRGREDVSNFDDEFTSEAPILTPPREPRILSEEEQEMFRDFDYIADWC
Chain of TIE1 (P35590 22-1138): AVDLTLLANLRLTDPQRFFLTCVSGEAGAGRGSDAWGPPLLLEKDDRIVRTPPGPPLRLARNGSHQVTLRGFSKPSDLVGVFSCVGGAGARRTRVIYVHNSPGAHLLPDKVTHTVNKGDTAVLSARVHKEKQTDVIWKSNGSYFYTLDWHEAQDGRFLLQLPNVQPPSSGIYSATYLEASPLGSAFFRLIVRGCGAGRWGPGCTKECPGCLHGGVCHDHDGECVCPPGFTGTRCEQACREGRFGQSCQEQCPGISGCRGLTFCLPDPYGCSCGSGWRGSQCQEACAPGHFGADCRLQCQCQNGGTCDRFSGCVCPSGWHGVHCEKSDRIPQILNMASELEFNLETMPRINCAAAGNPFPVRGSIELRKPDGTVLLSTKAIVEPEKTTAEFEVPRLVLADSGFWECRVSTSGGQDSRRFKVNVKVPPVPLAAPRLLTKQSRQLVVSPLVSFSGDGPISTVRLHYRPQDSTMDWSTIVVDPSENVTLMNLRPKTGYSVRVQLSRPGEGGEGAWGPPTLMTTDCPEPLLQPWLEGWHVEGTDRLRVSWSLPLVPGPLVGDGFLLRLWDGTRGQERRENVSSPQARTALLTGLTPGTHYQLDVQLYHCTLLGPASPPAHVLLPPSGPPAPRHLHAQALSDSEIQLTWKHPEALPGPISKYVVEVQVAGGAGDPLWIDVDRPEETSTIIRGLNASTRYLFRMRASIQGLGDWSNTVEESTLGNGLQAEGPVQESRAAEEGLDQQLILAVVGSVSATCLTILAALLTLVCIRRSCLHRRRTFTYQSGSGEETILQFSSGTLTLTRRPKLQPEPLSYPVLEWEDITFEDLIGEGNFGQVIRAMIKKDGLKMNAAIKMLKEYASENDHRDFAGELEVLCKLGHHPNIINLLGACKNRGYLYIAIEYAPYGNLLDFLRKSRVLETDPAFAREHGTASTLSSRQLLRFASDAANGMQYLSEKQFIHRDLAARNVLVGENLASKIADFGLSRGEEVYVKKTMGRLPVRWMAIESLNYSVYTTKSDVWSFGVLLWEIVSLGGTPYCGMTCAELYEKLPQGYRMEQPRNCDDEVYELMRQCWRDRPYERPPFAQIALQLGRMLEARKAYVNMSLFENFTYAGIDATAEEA
T1 sequence (P54646 whole entry): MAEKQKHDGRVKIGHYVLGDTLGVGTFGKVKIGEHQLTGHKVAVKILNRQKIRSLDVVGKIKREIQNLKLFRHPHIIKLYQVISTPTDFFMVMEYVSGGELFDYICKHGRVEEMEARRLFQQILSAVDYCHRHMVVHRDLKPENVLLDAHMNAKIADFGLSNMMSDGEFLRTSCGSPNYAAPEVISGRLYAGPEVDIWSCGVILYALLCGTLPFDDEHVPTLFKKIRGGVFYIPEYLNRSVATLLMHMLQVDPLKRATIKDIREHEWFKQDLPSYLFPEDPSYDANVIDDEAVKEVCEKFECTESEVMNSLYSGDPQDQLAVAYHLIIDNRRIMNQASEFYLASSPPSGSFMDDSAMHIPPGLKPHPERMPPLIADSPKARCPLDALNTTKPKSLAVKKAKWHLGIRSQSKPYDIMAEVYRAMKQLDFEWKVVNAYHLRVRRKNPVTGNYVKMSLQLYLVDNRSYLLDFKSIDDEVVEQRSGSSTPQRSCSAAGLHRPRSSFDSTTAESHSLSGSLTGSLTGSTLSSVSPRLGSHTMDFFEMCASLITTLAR

As for `CNc1c(-c2cnn([C@H]3CCN(C(C)=O)C[C@@H]3F)c2)cnc2[nH]cc(Cl)c12` [Compound 77, 1-((3S,4S)-4-(4-(3-chloro-4-(methylamino)-1H-pyrrolo[2,3-b]pyridin-5-yl)-1H-pyrazol-1-yl)-3-fluoropiperidin-1-yl)ethan-1-one], the remaining binding at 1 µM in assay [1] came out at 0.65%; in assay [2], 99%; in assay [3] it was 89%; in assay [4], 97%; in assay [5] it was 51%; in assay [6], 100%. The remaining binding at 1 µM in assay [7] came out at 81%.

Take `CNc1c(-c2ccc(C(=O)N3CCC(N4CCOCC4)CC3)cc2)cnc2[nH]cc(Cl)c12` [Compound 96, (4-(3-chloro-4-(methylamino)-1H-pyrrolo[2,3-b]pyridin-5-yl)phenyl)(4-morpholinopiperidin-1-yl)methanone]: the remaining binding at 1 µM was found to be 11% in assay [1]; 66% in assay [2]; 78% in assay [3]; 93% in assay [4]; 87% in assay [5]; 100% in assay [6]. Further, the remaining binding at 1 µM in assay [7] worked out at 56%.

Turning to `O=C(c1ccc(-c2cnc3[nH]cc(Cl)c3c2NC2CCCC2)cc1)N1CCC(N2CCOCC2)CC1` [Compound 101, (4-(3-chloro-4-(cyclopentylamino)-1H-pyrrolo[2,3-b]pyridin-5-yl)phenyl)(4-morpholinopiperidin-1-yl)methanone], the remaining binding at 1 µM in assay [1] came to 49%; in assay [2], 55%; in assay [3], 99%; in assay [4] it was 92%; in assay [5], 75%; in assay [6] it was 100%. In addition, in assay [7], the remaining binding at 1 µM was 100%.
